In one test the target is T1, Cathepsin E (Homo sapiens, UniProt P14091).
T1 sequence (P14091 whole entry): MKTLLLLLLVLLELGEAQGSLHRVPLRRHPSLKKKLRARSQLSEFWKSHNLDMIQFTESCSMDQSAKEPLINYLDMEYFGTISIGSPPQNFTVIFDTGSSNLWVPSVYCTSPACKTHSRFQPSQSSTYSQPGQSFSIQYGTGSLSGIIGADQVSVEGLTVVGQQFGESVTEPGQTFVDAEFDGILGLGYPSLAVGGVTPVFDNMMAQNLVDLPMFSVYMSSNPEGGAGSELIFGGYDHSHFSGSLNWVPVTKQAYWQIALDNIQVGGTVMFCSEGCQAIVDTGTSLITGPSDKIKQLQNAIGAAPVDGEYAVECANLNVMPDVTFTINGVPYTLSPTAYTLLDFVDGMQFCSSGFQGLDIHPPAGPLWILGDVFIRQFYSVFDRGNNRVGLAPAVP
Kind of test: Inhibition of cathepsin E.

For a further test, the system named is HCT-116. Briefly: Cytotoxicity against human HCT116 cells. It is filed as functional, cell-based.

The source made the active and inactive calls. No cut-off for these calls is given here.

As a reminder, the IC50 is the midpoint of a concentration-inhibition curve. `CC[C@@H](C)[C@H](C(=O)O[C@@H](C(=O)N[C@@H](Cc1ccc(O)cc1)C(=O)N[C@@H](CO)C(=O)N[C@@H](CC(C)C)[C@H](O)CC(=O)N[C@H](C(=O)NCC(=O)N(C)[C@H](Cc1ccccc1)C(=O)N1CCC[C@H]1C(=O)OC)C(C)C)C(C)C)N(C)C` [SYMPLOCIN A] returned an IC50 against Cathepsin E of 0.3 nM. In the test on HCT-116, the outcome was inactive.

These data come from ChEMBL document CHEMBL2021846, “Symplocin A, a linear peptide from the Bahamian cyanobacterium Symploca sp. Configurational analysis of N,N-dimethylamino acids by chiral-phase HPLC of naphthacyl esters” (J Nat Prod, 2012).
